Measured values published in patent US9957266B2, “Imidazo[1,2-a]pyridin-7-amine” (Hoffmann-La Roche Inc., priority 2013, dated 2018).

Experiments:
native tau aggregates = assay: TAU radioligand in vitro displacement assay ([^3H]T808, autoradiography); assay type: binding; conditions: human AD brain sections; radioligand [^3H]T808 10 nM; cold compound 10 nM; 50 mM Tris pH 7.4, room temperature, 30 min
Description: (§1) FIG. 3 represents data from the TAU radioligand in vitro displacement assay described below. This in vitro binding assay assesses the affinity of compounds for native tau aggregates. The compounds are co-incubated with the well-established tau specific radioligand [^3H]T808 and the compound's displacement potency of [^3H]T808 binding is determined by in vitro autoradiography using human Alzheimer's disease (AD) brain sections.
as §1, with “This” for “FIG. 3 represents data from the TAU radioligand in vitro displacement assay described below. This”, “sections (see FIG. 3).” for “sections.”
AD human brains are purchased from Banner Sun Health Research Institute (Sun City, Ariz., USA). Pathological diagnosis of AD is made according to standard NIA-Reagan Institute criteria based on neuropathological data. The radioligand [^3H]T808 was synthesized in-house ([^3H]-2-[4-(2-Fluoro-ethyl)-piperidin-1-yl]-benzo[4,5]imidazo[1,2-a]pyrimidine, radiochemical purity 99.0%). As a reference cold T808 is used (2-[4-(2-Fluoro-ethyl)-piperidin-1-yl]-benzo[4,5]imidazo[1,2-a]pyrimidine). For the autoradiography FujiFilm Imaging Plates (BAS-IP TR 2025) are exposed to the sections and read with a FujiFilm IP reader (BAS-5000).
Ten μm thick human AD brain sections are generated with a cryostat (Leica CM3050) at −17° C. chamber temperature and −15° C. object temperature. Sections are transferred to Histobond+ microscope slides (Marienfeld Laboratory Glasware). After drying for 3 hours at room temperature the sections are stored at −20° C. The sections are incubated with the radioligand (10 nM) and the respective cold compound (at various concentrations) in 50 mM Tris buffer, pH 7.4 at room temperature for 30 min. After washing 3×10 min at 4° C. in 50 mM Tris buffer, pH 7.4 and 3 quick dips in H2O dist. at 4° C. the sections are dried at 4° C. for 3 h. The sections are placed in a FujiFilm Cassette (BAS 2025), exposed with an Imaging Plate for five days and afterwards scanned with a resolution of […].
The signal intensity (Dens-PSL/mm2) in the region of interest (ROI) of the autoradiogram is quantified with the software MCID analysis (version 7.0, Imaging Research Inc.). The specific binding (SB) of [^3H]T808 binding in absence or in presence of a compound is calculated by subtracting the non-specific binding signal in the white matter, thus yielding SB[3H]T808 only and SBcompound. The % displacement by the various compounds is calculated as following: % displacement=100−(SBcompund/SB[3H]T808 only)*100. Validation Data
In each experiment cold T808 is used as a positive internal control. […]

tau aggregates = assay: Autoradiography of tritiated radioligands on human cortical AD brain sections; assay type: binding; conditions: Braak V staged AD patient
Sequence of tau aggregates (P10636 623-695 limits assumed): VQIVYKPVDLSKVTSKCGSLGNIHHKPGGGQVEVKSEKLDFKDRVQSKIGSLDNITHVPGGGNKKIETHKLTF
Description: FIG. 1 is an autoradiogram of [^3H]-2-(4-methoxyphenyl)imidazo[1,2-a]pyridin-7-amine (example 5) incubated with human cortical brain sections obtained from a Braak V staged AD patient. The radioligand concentration was 2.6 nM.
FIG. 2 is an autoradiogram of [^3H]-2-[4-(2-fluoroethoxy)phenyl]imidazo[1,2-a]pyridin-7-amine (example 6) incubated with human cortical brain sections obtained from a Braak V staged AD patient. The radioligand concentration was 2.5 nM.
FIGS. 1 and 2 represent autoradiograms of respectively [[^3H]-2-(4-methoxyphenyl)imidazo[1,2-a]pyridin-7-amine (example 5) and [^3H]-2-[4-(2-fluoroethoxy)phenyl]imidazo[1,2-a]pyridin-7-amine (example 6) incubated with human cortical brain sections obtained from a Braak V staged AD patient. The radioligand concentrations were 2.6 and 2.5 nM, respectively.

Row | Compound | % displacement of [^3H]T808 (10 nM) at 10 nM (native tau aggregates) | also measured
1 | Nc1ccn2cc(-c3ccc(OCCCF)cc3)nc2c1 [Example 3, 2-[4-(3-Fluoropropoxy)phenyl]imidazo[1,2-a]pyridin-7-amine] | 25% | 
2 | [^3H]-2-(4-Methoxyphenyl)imidazo[1,2-a]pyridin-7-amine [Example 5] |  | autoradiogram staining pattern (tau aggregates; radioligand concentration 2.6 nM (FIG. 1)): punctate staining of tau aggregates in a layered distribution pattern and a varying degree of non-specific binding in white matter
3 | [^3H]-2-[4-(2-Fluoroethoxy)phenyl]imidazo[1,2-a]pyridin-7-amine [Example 6] |  | autoradiogram staining pattern (tau aggregates; radioligand concentration 2.5 nM (FIG. 2)): punctate staining of tau aggregates in a layered distribution pattern and a varying degree of non-specific binding in white matter

Second part, led by results:

Row | % displacement of [^3H]T808 (10 nM) at 10 nM (native tau aggregates) | Compound | also measured
4 | 67% | COc1ccc(-c2cn3ccc(N)cc3n2)cc1 [Example 1, 2-(4-Methoxyphenyl)imidazo[1,2-a]pyridin-7-amine] | 
5 | 51% | Nc1ccn2cc(-c3ccc(OCF)cc3)nc2c1 [Example 2, 2-(4-(Fluoromethoxy)phenyl)imidazo[1,2-a]pyridin-7-amine] | 
6 | 50% | Nc1ccn2cc(-c3ccc(OCCF)cc3)nc2c1 [Example 4, 2-[4-(2-Fluoroethoxy)phenyl]imidazo[1,2-a]pyridin-7-amine] | 
